Article PMC4503722, “Novel Phenotypic Outcomes Identified for a Public Collection of Approved Drugs from a Publicly Accessible Panel of Assays” (PLoS ONE, 2015)
Where two headings read alike, the source gives them in different places.

Assays:
DLD-1 = test: cells; format: cell-based; conditions: Homo sapiens
HeLa cells = test: cells; format: cell-based; conditions: for EC50: Homo sapiens, HeLa, read-out: CellCycle G2/M
RKO = test: cells; format: cell-based
[1] = tested on: nuclear β-catenin in C2C12 cells; test: cells; format: cell-based
NCI-H716 cells = test: cells; format: cell-based, Human
[2] = tested on: endothelial tube formation in co-cultures of ECFCs and ADSCs treated with VEGF; test: cells; format: cell-based, human
HT-29 = test: cells; format: cell-based
SNU-C1 = test: cells; format: cell-based; conditions: Homo sapiens
Colo320 = test: cells; format: cell-based; conditions: Homo sapiens
hFLT3 = target: T1, hFLT3 (Homo sapiens, UniProt P36888); test: Cerep LANCE kinase assay hFLT3 (S1 assay 35); format: biochemical; conditions: read-out: FLT3
T1 construct: purchased Cerep (LANCE kinase assay platform, contract assay)
T1 sequence (P36888 27-993): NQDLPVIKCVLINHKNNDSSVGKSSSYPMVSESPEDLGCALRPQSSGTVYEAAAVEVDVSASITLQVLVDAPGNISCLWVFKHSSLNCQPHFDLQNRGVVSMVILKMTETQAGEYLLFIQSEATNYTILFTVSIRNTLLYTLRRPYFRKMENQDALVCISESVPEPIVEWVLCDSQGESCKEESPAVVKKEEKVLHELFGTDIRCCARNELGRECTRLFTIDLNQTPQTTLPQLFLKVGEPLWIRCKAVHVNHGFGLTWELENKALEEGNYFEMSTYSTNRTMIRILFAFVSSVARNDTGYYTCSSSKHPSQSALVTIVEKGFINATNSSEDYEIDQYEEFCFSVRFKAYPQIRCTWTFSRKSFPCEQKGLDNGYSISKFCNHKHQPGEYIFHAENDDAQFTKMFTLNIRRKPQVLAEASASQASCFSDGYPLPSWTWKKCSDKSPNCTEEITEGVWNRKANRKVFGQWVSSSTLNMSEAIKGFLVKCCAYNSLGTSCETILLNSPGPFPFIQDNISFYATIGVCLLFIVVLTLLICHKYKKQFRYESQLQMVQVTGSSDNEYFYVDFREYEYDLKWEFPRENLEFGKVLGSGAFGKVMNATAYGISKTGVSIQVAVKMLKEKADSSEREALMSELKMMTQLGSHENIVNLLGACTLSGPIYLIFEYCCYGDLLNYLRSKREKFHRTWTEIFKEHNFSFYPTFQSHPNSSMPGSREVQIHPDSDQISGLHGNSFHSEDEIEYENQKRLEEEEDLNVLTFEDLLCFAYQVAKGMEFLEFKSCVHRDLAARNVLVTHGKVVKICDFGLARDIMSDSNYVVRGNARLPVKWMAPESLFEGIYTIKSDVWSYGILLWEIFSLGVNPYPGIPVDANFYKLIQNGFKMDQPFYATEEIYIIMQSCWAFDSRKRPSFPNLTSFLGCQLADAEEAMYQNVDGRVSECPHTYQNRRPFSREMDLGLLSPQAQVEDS

hGSK3b = target: T2, hGSK3b (Homo sapiens, UniProt P49841); test: Cerep LANCE kinase assay hGSK3b (S1 assay 34); format: biochemical; conditions: read-out: GSK3b
T2 construct: purchased Cerep (LANCE kinase assay platform, contract assay)
T2 sequence (P49841 whole entry): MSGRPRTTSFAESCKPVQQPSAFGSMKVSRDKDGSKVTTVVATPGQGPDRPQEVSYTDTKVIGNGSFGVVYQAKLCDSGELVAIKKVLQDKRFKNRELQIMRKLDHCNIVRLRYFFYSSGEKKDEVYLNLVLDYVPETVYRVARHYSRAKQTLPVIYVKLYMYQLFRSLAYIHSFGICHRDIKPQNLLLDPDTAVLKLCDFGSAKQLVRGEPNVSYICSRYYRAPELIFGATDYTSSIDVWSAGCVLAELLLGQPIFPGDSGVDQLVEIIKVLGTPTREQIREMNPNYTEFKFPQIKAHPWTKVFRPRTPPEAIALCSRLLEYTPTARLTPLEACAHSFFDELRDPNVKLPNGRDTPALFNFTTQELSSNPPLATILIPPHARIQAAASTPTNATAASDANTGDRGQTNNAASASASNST

hJAK2 = target: T3, hJAK2 (Homo sapiens, UniProt O60674); test: Cerep LANCE kinase assay hJAK2 (S1 assay 33); format: biochemical; conditions: read-out: JAK2
T3 construct: purchased Cerep (LANCE kinase assay platform, contract assay)
T3 sequence (O60674 whole entry): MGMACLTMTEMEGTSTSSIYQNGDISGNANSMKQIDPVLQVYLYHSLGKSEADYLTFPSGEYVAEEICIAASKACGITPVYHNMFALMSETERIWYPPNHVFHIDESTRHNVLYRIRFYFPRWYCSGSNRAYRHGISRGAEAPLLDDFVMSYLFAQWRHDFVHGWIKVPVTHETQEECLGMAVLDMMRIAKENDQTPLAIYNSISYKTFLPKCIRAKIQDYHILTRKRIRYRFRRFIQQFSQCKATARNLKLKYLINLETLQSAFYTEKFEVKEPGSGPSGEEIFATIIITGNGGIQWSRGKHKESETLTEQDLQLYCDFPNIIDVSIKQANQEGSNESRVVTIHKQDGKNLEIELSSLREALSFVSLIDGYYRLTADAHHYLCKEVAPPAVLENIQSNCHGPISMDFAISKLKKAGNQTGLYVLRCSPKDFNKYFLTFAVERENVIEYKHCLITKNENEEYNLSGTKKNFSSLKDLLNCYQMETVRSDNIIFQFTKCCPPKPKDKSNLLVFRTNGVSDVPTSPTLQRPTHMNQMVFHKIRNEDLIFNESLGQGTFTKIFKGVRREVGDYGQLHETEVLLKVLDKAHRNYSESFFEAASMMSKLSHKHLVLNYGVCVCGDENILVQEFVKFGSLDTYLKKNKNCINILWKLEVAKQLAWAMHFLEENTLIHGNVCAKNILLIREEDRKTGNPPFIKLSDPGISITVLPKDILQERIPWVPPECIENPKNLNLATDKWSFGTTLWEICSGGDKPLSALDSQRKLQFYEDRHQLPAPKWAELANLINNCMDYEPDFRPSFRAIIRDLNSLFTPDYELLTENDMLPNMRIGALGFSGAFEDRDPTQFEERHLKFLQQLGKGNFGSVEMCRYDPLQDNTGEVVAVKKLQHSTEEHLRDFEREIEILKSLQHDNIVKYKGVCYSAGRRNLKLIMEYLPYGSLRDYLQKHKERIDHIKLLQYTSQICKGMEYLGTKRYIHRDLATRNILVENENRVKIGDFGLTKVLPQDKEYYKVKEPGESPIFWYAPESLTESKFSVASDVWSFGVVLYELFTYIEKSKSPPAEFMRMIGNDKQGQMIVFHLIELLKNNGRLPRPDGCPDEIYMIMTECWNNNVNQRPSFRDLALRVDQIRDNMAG

SW480 = test: cells; format: cell-based; conditions: Homo sapiens
[3] = tested on: HCT116 cells treated with a GSK3β inhibitor; test: cells; format: cell-based; conditions: Homo sapiens
hp70S6K1 (RPS6KB1) = target: T4, hp70S6K1 (RPS6KB1) (Homo sapiens, UniProt P23443); test: Cerep LANCE kinase assay hp70S6K1 (S1 assay 31); format: biochemical; conditions: read-out: p70S6K1
T4 construct: purchased Cerep (LANCE kinase assay platform, contract assay)
T4 sequence (P23443 whole entry): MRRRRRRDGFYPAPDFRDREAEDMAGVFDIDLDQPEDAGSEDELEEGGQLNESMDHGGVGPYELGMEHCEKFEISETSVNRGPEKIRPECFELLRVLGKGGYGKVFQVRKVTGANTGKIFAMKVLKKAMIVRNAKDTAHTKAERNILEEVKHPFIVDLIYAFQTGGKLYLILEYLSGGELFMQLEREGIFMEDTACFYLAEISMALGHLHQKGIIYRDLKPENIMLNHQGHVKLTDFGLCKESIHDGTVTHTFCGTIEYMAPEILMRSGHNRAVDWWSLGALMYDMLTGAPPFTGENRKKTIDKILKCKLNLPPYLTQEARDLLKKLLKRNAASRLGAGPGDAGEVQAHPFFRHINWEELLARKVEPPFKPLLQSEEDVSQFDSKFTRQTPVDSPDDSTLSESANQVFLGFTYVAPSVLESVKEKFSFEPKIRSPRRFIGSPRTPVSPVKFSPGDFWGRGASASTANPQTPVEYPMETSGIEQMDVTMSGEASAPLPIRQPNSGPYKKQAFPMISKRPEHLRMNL

HCT116 = test: cells; format: cell-based; conditions: Homo sapiens
INS-1E cells = test: cells; format: cell-based, rat
hKDR = target: T5, hKDR (Homo sapiens, UniProt P35968); test: Cerep LANCE kinase assay hKDR (S1 assay 32); format: biochemical; conditions: read-out: KDR
T5 construct: purchased Cerep (LANCE kinase assay platform, contract assay)
T5 sequence (P35968 20-1356): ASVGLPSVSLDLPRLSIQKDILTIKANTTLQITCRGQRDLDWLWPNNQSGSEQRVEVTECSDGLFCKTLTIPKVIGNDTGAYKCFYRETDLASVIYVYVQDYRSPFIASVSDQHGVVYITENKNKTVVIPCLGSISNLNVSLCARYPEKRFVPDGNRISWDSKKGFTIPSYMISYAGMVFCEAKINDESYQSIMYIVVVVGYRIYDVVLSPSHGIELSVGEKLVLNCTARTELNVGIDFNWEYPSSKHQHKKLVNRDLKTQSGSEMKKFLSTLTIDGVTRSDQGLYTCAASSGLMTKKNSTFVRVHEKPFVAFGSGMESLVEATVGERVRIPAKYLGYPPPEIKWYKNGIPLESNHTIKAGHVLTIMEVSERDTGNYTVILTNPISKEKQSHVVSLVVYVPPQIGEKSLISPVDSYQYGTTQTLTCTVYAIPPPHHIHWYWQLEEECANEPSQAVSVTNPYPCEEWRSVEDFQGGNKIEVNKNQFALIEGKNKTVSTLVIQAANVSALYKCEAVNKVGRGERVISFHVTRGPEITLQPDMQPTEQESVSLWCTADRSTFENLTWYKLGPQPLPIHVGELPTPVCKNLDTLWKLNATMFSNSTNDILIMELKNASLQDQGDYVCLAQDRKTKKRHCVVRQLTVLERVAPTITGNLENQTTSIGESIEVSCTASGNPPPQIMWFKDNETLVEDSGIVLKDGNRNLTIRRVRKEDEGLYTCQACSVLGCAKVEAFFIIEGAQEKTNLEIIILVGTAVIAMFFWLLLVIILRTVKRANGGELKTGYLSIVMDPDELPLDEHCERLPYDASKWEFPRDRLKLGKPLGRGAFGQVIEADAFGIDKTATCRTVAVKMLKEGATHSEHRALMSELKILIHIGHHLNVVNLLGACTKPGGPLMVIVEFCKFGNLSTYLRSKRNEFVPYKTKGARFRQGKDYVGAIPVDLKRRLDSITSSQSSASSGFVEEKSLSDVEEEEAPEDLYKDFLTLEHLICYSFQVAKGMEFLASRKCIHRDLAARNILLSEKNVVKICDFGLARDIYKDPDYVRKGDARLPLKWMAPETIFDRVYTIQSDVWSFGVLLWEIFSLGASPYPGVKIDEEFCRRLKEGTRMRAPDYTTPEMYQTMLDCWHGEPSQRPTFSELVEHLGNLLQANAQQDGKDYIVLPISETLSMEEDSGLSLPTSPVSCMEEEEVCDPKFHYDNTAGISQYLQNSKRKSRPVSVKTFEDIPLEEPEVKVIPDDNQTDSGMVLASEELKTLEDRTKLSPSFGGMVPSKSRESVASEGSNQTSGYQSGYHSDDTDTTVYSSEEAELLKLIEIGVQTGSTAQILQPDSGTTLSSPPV

[4] = DLD-1, read-out: Basal_Viability ATP DLD-1
[5] = Homo sapiens, RKO, read-out: Basal_Viability ATP RKO
[6] = Mus musculus, C2C12, read-out: Wnt Pathway
[7] = Homo sapiens, NCI-H716, read-out: GLP 1 Secretion
[8] = Homo sapiens, read-out: Anti-Angiogenesis
[9] = Homo sapiens, HT-29, read-out: Basal_Viability ATP HT-29
[10] = SNU-C1, read-out: Basal_Viability ATP SNU-C1
[11] = COLO 320, read-out: Basal_Viability ATP Colo 320
[12] = SW480, read-out: Basal_Viability ATP SW480
[13] = HCT-116, read-out: GSK3b inh pretreated_Viability ATP HCT116
[14] = HCT-116, read-out: Basal_Viability ATP HCT116
[15] = Rattus norvegicus, INS-1E, read-out: Insulin Secretion
[16] = DLD-1, 72 h, read-out: DLD-1 viab. IC50
[17] = HCT-116, 72 h, read-out: HCT-116 (GSK3β) viab. IC50

Cc1cc(C2CCCCC2)n(O)c(=O)c1 [ciclopirox]
IC50 (DLD-1; [4]): 316 nM | EC50 (HeLa cells): > 10 µM | IC50 (RKO; [5]): 233 nM | EC50 [1, 6]: 1050 nM | EC50 (NCI-H716 cells; [7]): > 10 µM | IC50 [2, 8]: > 10 µM | IC50 (HT-29; [9]): 7.04 µM | IC50 (SNU-C1; [10]): > 20000 nM | IC50 (Colo320; [11]): 208 nM | IC50 (hFLT3; kinase assay): > 20 µM | IC50 (hGSK3b; kinase assay): > 20 µM | IC50 (hJAK2; kinase assay): > 20 µM | IC50 (SW480; [12]): 469 nM | IC50 [3, 13]: 390 nM | IC50 (hp70S6K1 (RPS6KB1); kinase assay): > 20 µM | IC50 (HCT116; [14]): 656 nM | EC50 (INS-1E cells; [15]): > 10 µM | IC50 (hKDR; kinase assay): > 20 µM

O=C(O)c1ccc(-n2nc(-c3ccccc3O)nc2-c2ccccc2O)cc1 [deferasirox]
IC50 (DLD-1; [4]): 651 nM | EC50 (HeLa cells): > 10 µM | IC50 (RKO; [5]): 100 nM | EC50 [1, 6]: > 10000 nM | EC50 (NCI-H716 cells; [7]): > 10 µM | IC50 [2, 8]: 2.09 µM | IC50 (HT-29; [9]): 0.516 µM | IC50 (SNU-C1; [10]): 233 nM | IC50 (Colo320; [11]): 409 nM | IC50 (hFLT3): > 20 µM | IC50 (hGSK3b): > 20 µM | IC50 (hJAK2): 18.2 µM | IC50 (SW480; [12]): 77.6 nM | IC50 [3, 13]: 242 nM | IC50 (hp70S6K1 (RPS6KB1)): > 20 µM | IC50 (HCT116; [14]): 438 nM | EC50 (INS-1E cells; [15]): > 10 µM | IC50 (hKDR): > 20 µM

Cc1nc(N)nc(N)c1-c1ccc(Cl)c(Cl)c1 [metoprine, reference compound]
IC50 (DLD-1; [16]): 630 nM | IC50 (DLD-1; [4]): 634 nM | EC50 (HeLa cells): > 10 µM | IC50 (RKO; Homo sapiens, RKO, 72 h, read-out: RKO viab. IC50): 120 nM | IC50 (RKO; [5]): 117 nM | EC50 [1, 6]: 29.9 nM | EC50 ([1]; Mus musculus, C2C12, read-out: Wnt pot. EC50): 30 nM | EC50 (NCI-H716 cells; Homo sapiens, NCI-H716, read-out: GLP1 sec. EC50): > 10 µM | IC50 ([2]; Homo sapiens, read-out: Anti-Angio IC50): > 10 µM | IC50 (HT-29; Homo sapiens, HT-29, 72 h, read-out: HT-29 viab. IC50): 0.93 µM | IC50 (HT-29; [9]): 0.932 µM | IC50 (SNU-C1; SNU-C1, 72 h, read-out: SNU-C1 viab. IC50): 2200 nM | IC50 (SNU-C1; [10]): 2160 nM | IC50 (Colo320; COLO 320, 72 h, read-out: Colo320 viab. IC50): 2000 nM | IC50 (Colo320; [11]): 2030 nM | IC50 (hFLT3; kinase assay): > 20 µM | IC50 (hGSK3b; kinase assay): > 20 µM | IC50 (hJAK2; kinase assay): > 20 µM | IC50 (SW480; SW480, 72 h, read-out: SW480 viab. IC50): 510 nM | IC50 (SW480; [12]): 512 nM | IC50 [3, 17]: 59 nM | IC50 [3, 13]: 58.9 nM | IC50 (hp70S6K1 (RPS6KB1); kinase assay): > 20 µM | IC50 (HCT116; HCT-116, 72 h, read-out: HCT-116 viab. IC50): 410 nM | IC50 (HCT116; [14]): 413 nM | EC50 (INS-1E cells; Rattus norvegicus, INS-1E, read-out: Ins. sec. EC50): > 10 µM | IC50 (hKDR; kinase assay): > 20 µM

O=C1c2c(O)ccc(O)c2C(=O)c2c(NCCNCCO)ccc(NCCNCCO)c21 [mitoxantrone]
IC50 (DLD-1; [4]): 1600 nM | EC50 (HeLa cells): > 10 µM | IC50 (RKO; [5]): 1030 nM | EC50 [1, 6]: 30.3 nM | EC50 (NCI-H716 cells; [7]): > 10 µM | IC50 [2, 8]: 0.0044 µM | IC50 (HT-29; [9]): 7.59 µM | IC50 (SNU-C1; [10]): 1720 nM | IC50 (Colo320; [11]): 7410 nM | IC50 (hFLT3; kinase assay): > 20 µM | IC50 (hGSK3b; kinase assay): > 20 µM | IC50 (hJAK2; kinase assay): > 20 µM | IC50 (SW480; [12]): 1830 nM | IC50 [3, 13]: 1 nM | IC50 (hp70S6K1 (RPS6KB1); kinase assay): > 20 µM | IC50 (HCT116; [14]): 1230 nM | EC50 (INS-1E cells; [15]): > 10 µM | IC50 (hKDR; kinase assay): > 20 µM

Cc1ccc2nc(N)[nH]c(=O)c2c1Sc1ccncc1 [nolatrexed, reference compound]
IC50 (DLD-1; [16]): > 20000 nM | G2/M IC50 / EC50 (HeLa cells): 20 (values shown as 20 indicate that the compound was tested in concentration-response and showed no response at the highest concentration tested (e.g. IC50 > 20 μM)) | EC50 (HeLa cells; IC50 / EC50): > 10 µM | IC50 (RKO; Homo sapiens, RKO; Table 2; 72 h, Cell TiterGlo, non-adherent; 20 coded; read-out: RKO viab. IC50): 340 nM | IC50 (RKO; Homo sapiens, RKO; read-out: Basal_Viability ATP RKO): 343 nM | EC50 ([1]; Mus musculus, C2C12, IC50 / EC50; C2C12 beta-catenin translocation; read-out: Wnt Pathway): 244 nM | EC50 ([1]; Mus musculus, C2C12; read-out: Wnt pot. EC50): 240 nM | EC50 (NCI-H716 cells; Homo sapiens, NCI-H716; read-out: GLP1 sec. EC50): > 10 µM | IC50 ([2]; Homo sapiens, IC50 / EC50; endothelial tube area, ADSC/ECFC co-culture; read-out: Anti-Angiogenesis): 7.37 µM | IC50 ([2]; Homo sapiens; read-out: Anti-Angio IC50): 7.4 µM | IC50 (HT-29; Homo sapiens, HT-29; Table 2; 72 h, Cell TiterGlo, non-adherent; 20 coded; read-out: HT-29 viab. IC50): 4.7 µM | IC50 (HT-29; Homo sapiens, HT-29; read-out: Basal_Viability ATP HT-29): 4.75 µM | IC50 (SNU-C1; SNU-C1, 72 h, Table 2, 72 h, Cell TiterGlo, non-adherent, 20 coded, read-out: SNU-C1 viab. IC50): > 20000 nM | IC50 (Colo320; COLO 320, Table 2, 72 h, Cell TiterGlo, non-adherent, 20 coded, read-out: Colo320 viab. IC50): > 20000 nM | IC50 (hFLT3): > 20 µM | IC50 (hGSK3b): > 20 µM | IC50 (hJAK2): > 20 µM | IC50 (SW480; SW480, 72 h, Table 2, 72 h, Cell TiterGlo, non-adherent, 20 coded, read-out: SW480 viab. IC50): 2200 nM | IC50 (SW480; SW480, basal, read-out: Basal_Viability ATP SW480): 2240 nM | IC50 [3, 17]: 830 nM | IC50 [3, 13]: 830 nM | IC50 (hp70S6K1 (RPS6KB1)): 17.8 µM | IC50 (HCT116; HCT-116, 72 h, read-out: HCT-116 viab. IC50, Table 2, basal, 72 h, Cell TiterGlo, non-adherent, 20 coded): 3500 nM | IC50 (HCT116; HCT-116, basal, read-out: Basal_Viability ATP HCT116): 3500 nM | EC50 (INS-1E cells; Rattus norvegicus, INS-1E; read-out: Ins. sec. EC50): > 10 µM | IC50 (hKDR): > 20 µM
